Assay results taken from patent US20240238242A1, “EGCG buccal tablet and use thereof” (priority 2023, published 2024).
Where “and” joins values, the source holds several entries; their conditions need not be identical. Identical values can stand only once. Like-named read-outs stand apart in the source and are kept apart here.

Tested on: Influenza A virus neuraminidase inhibitor-resistant strain (ZX-1109)
Format: cell-based

In the case of `O=C(O[C@@H]1Cc2c(O)cc(O)cc2O[C@@H]1c1cc(O)c(O)c(O)c1)c1cc(O)c(O)c(O)c1` [EGCG, Epigallocatechin gallate], the “CPE test per cell well” value (0.2 mM EGCG + ZX1109 virus, 1 minute, second experiment, dilution factor 10^1, wells 1-10) is reported as “+”, the “CPE test per cell well” value (0.2 mM EGCG + ZX1109 virus, 1 minute, second experiment, dilution factor 10^2, wells 1-10) is reported as “+” and the “CPE test per cell well” value (0.2 mM EGCG + ZX1109 virus, 1 minute, second experiment, dilution factor 10^3, wells 1-10) is reported as “+”. The “CPE test per cell well” value (0.2 mM EGCG + ZX1109 virus, 1 minute, second experiment, dilution factor 10^4, wells 1-10) was “+”, the “CPE test per cell well” value (0.2 mM EGCG + ZX1109 virus, 1 minute, second experiment, dilution factor 10^5, wells 1-10) was “+ and −” and the “CPE test per cell well” value (0.2 mM EGCG + ZX1109 virus, 1 minute, second experiment, dilution factor 10^6, wells 1-10) was “−”. For the same molecule, the “CPE test per cell well” value (0.2 mM EGCG + ZX1109 virus, 1 minute, second experiment, dilution factor 10^7, wells 1-10) was “−”, the “CPE test per cell well” value (0.2 mM EGCG + ZX1109 virus, 1 minute, second experiment, dilution factor 10^8, wells 1-10) was “−” and the “CPE test per cell well” value (0.2 mM EGCG + ZX-1109 virus, 1 minute, first experiment, dilution factor 10^1, wells 1-10) was “+”. For the same molecule, the “CPE test per cell well” value (0.2 mM EGCG + ZX-1109 virus, 1 minute, first experiment, dilution factor 10^2, wells 1-10) was “+”, the “CPE test per cell well” value (0.2 mM EGCG + ZX-1109 virus, 1 minute, first experiment, dilution factor 10^3, wells 1-10) was “+” and the “CPE test per cell well” value (0.2 mM EGCG + ZX-1109 virus, 1 minute, first experiment, dilution factor 10^4, wells 1-10) was “+”. For the same molecule, the “CPE test per cell well” value (0.2 mM EGCG + ZX-1109 virus, 1 minute, first experiment, dilution factor 10^5, wells 1-10) was “+ and −”, the “CPE test per cell well” value (0.2 mM EGCG + ZX-1109 virus, 1 minute, first experiment, dilution factor 10^6, wells 1-10) was “+ and −” and the “CPE test per cell well” value (0.2 mM EGCG + ZX-1109 virus, 1 minute, first experiment, dilution factor 10^7, wells 1-10) was “−”. For the same molecule, the “CPE test per cell well” value (0.2 mM EGCG + ZX-1109 virus, 1 minute, first experiment, dilution factor 10^8, wells 1-10) was “−”, the “CPE test (virus replication in the cell wells)” value (0.2 mM EGCG + ZX-1109 virus, 1 minute, third experiment, dilution factor 10^1, wells 1-10) was “+” and the “CPE test (virus replication in the cell wells)” value (0.2 mM EGCG + ZX-1109 virus, 1 minute, third experiment, dilution factor 10^2, wells 1-10) was “+”. The “CPE test (virus replication in the cell wells)” value (0.2 mM EGCG + ZX-1109 virus, 1 minute, third experiment, dilution factor 10^3, wells 1-10) was “+”, the “CPE test (virus replication in the cell wells)” value (0.2 mM EGCG + ZX-1109 virus, 1 minute, third experiment, dilution factor 10^4, wells 1-10) was “+” and the “CPE test (virus replication in the cell wells)” value (0.2 mM EGCG + ZX-1109 virus, 1 minute, third experiment, dilution factor 10^5, wells 1-10) was “− and +”. The “CPE test (virus replication in the cell wells)” value (0.2 mM EGCG + ZX-1109 virus, 1 minute, third experiment, dilution factor 10^6, wells 1-10) was “+ and −”, the “CPE test (virus replication in the cell wells)” value (0.2 mM EGCG + ZX-1109 virus, 1 minute, third experiment, dilution factor 10^7, wells 1-10) was “−” and the “CPE test (virus replication in the cell wells)” value (0.2 mM EGCG + ZX-1109 virus, 1 minute, third experiment, dilution factor 10^8, wells 1-10) was “−”. For the same molecule, the “CPE test (virus replication in the cell wells)” value (0.2 mM EGCG + ZX-1109 virus, 5 minute, first experiment, dilution factor 10^1, wells 1-10) was “+”, the “CPE test (virus replication in the cell wells)” value (0.2 mM EGCG + ZX-1109 virus, 5 minute, first experiment, dilution factor 10^2, wells 1-10) was “+” and the “CPE test (virus replication in the cell wells)” value (0.2 mM EGCG + ZX-1109 virus, 5 minute, first experiment, dilution factor 10^3, wells 1-10) was “+”. The “CPE test (virus replication in the cell wells)” value (0.2 mM EGCG + ZX-1109 virus, 5 minute, first experiment, dilution factor 10^4, wells 1-10) was “+”, the “CPE test (virus replication in the cell wells)” value (0.2 mM EGCG + ZX-1109 virus, 5 minute, first experiment, dilution factor 10^5, wells 1-10) was “+” and the “CPE test (virus replication in the cell wells)” value (0.2 mM EGCG + ZX-1109 virus, 5 minute, first experiment, dilution factor 10^6, wells 1-10) was “− and +”. The “CPE test (virus replication in the cell wells)” value (0.2 mM EGCG + ZX-1109 virus, 5 minute, first experiment, dilution factor 10^7, wells 1-10) was “− and +”, the “CPE test (virus replication in the cell wells)” value (0.2 mM EGCG + ZX-1109 virus, 5 minute, first experiment, dilution factor 10^8, wells 1-10) was “− and +” and the “CPE test (virus replication in the cell wells)” value (0.2 mM EGCG + ZX-1109 virus, 5 minute, second experiment, dilution factor 10^1, wells 1-10) was “+”. The “CPE test (virus replication in the cell wells)” value (0.2 mM EGCG + ZX-1109 virus, 5 minute, second experiment, dilution factor 10^2, wells 1-10) was “+”, the “CPE test (virus replication in the cell wells)” value (0.2 mM EGCG + ZX-1109 virus, 5 minute, second experiment, dilution factor 10^3, wells 1-10) was “+” and the “CPE test (virus replication in the cell wells)” value (0.2 mM EGCG + ZX-1109 virus, 5 minute, second experiment, dilution factor 10^4, wells 1-10) was “+”. The “CPE test (virus replication in the cell wells)” value (0.2 mM EGCG + ZX-1109 virus, 5 minute, second experiment, dilution factor 10^5, wells 1-10) was “+ and −”, the “CPE test (virus replication in the cell wells)” value (0.2 mM EGCG + ZX-1109 virus, 5 minute, second experiment, dilution factor 10^6, wells 1-10) was “− and +” and the “CPE test (virus replication in the cell wells)” value (0.2 mM EGCG + ZX-1109 virus, 5 minute, second experiment, dilution factor 10^7, wells 1-10) was “−”. For the same molecule, the “CPE test per cell well” value (0.2 mM EGCG + ZX-1109 virus, 5 minute, third experiment, dilution factor 10^1, wells 1-10) was “+”, the “CPE test per cell well” value (0.2 mM EGCG + ZX-1109 virus, 5 minute, third experiment, dilution factor 10^2, wells 1-10) was “+” and the “CPE test per cell well” value (0.2 mM EGCG + ZX-1109 virus, 5 minute, third experiment, dilution factor 10^3, wells 1-10) was “+”. The “CPE test per cell well” value (0.2 mM EGCG + ZX-1109 virus, 5 minute, third experiment, dilution factor 10^4, wells 1-10) was “+”, the “CPE test per cell well” value (0.2 mM EGCG + ZX-1109 virus, 5 minute, third experiment, dilution factor 10^5, wells 1-10) was “+” and the “CPE test per cell well” value (0.2 mM EGCG + ZX-1109 virus, 5 minute, third experiment, dilution factor 10^6, wells 1-10) was “+ and −”. For the same molecule, the “CPE test per cell well” value (0.2 mM EGCG + ZX-1109 virus, 5 minute, third experiment, dilution factor 10^7, wells 1-10) was “+ and −”, the “CPE test per cell well” value (0.2 mM EGCG + ZX-1109 virus, 5 minute, third experiment, dilution factor 10^8, wells 1-10) was “− and +” and the “average inactivation efficiency against virus” value (0.2 mM EGCG, ZX1109 virus, 5 minutes, three experiments) was 92.16%. For the same molecule, the “residual virus titer of EGCG+virus group (Karber method)” value (0.2 mM EGCG, ZX-1109 virus, 5 minutes) was 10^7 TCID50/50 μL, the “inactivation efficiency against the virus” value (0.2 mM EGCG, ZX-1109 virus, 5 minutes, single experiment) was 98.42% and 98.00% and 80.05% and the “CPE test per cell well” value (1 mM EGCG + ZX1109 virus, 1 minute, second experiment, dilution factor 10^1, wells 1-10) was “+”. The “CPE test per cell well” value (1 mM EGCG + ZX1109 virus, 1 minute, second experiment, dilution factor 10^2, wells 1-10) was “+”, the “CPE test per cell well” value (1 mM EGCG + ZX1109 virus, 1 minute, second experiment, dilution factor 10^3, wells 1-10) was “+” and the “CPE test per cell well” value (1 mM EGCG + ZX1109 virus, 1 minute, second experiment, dilution factor 10^4, wells 1-10) was “+”. For the same molecule, the “CPE test per cell well” value (1 mM EGCG + ZX1109 virus, 1 minute, second experiment, dilution factor 10^5, wells 1-10) was “− and +”, the “CPE test per cell well” value (1 mM EGCG + ZX1109 virus, 1 minute, second experiment, dilution factor 10^6, wells 1-10) was “−” and the “CPE test per cell well” value (1 mM EGCG + ZX1109 virus, 1 minute, second experiment, dilution factor 10^7, wells 1-10) was “−”. For the same molecule, the “CPE test per cell well” value (1 mM EGCG + ZX1109 virus, 1 minute, second experiment, dilution factor 10^8, wells 1-10) was “−”, the “CPE test per cell well” value (1 mM EGCG + ZX-1109 virus, 1 minute, first experiment, dilution factor 10^1, wells 1-10) was “+” and the “CPE test per cell well” value (1 mM EGCG + ZX-1109 virus, 1 minute, first experiment, dilution factor 10^2, wells 1-10) was “+”. For the same molecule, the “CPE test per cell well” value (1 mM EGCG + ZX-1109 virus, 1 minute, first experiment, dilution factor 10^3, wells 1-10) was “+”, the “CPE test per cell well” value (1 mM EGCG + ZX-1109 virus, 1 minute, first experiment, dilution factor 10^4, wells 1-10) was “+” and the “CPE test per cell well” value (1 mM EGCG + ZX-1109 virus, 1 minute, first experiment, dilution factor 10^5, wells 1-10) was “+ and −”. For the same molecule, the “CPE test per cell well” value (1 mM EGCG + ZX-1109 virus, 1 minute, first experiment, dilution factor 10^6, wells 1-10) was “−”, the “CPE test per cell well” value (1 mM EGCG + ZX-1109 virus, 1 minute, first experiment, dilution factor 10^7, wells 1-10) was “−” and the “CPE test per cell well” value (1 mM EGCG + ZX-1109 virus, 1 minute, first experiment, dilution factor 10^8, wells 1-10) was “−”. The “CPE test (virus replication in the cell wells)” value (1 mM EGCG + ZX-1109 virus, 1 minute, third experiment, dilution factor 10^1, wells 1-10) was “+”, the “CPE test (virus replication in the cell wells)” value (1 mM EGCG + ZX-1109 virus, 1 minute, third experiment, dilution factor 10^2, wells 1-10) was “+” and the “CPE test (virus replication in the cell wells)” value (1 mM EGCG + ZX-1109 virus, 1 minute, third experiment, dilution factor 10^3, wells 1-10) was “+”. The “CPE test (virus replication in the cell wells)” value (1 mM EGCG + ZX-1109 virus, 1 minute, third experiment, dilution factor 10^4, wells 1-10) was “+” and the “CPE test (virus replication in the cell wells)” value (1 mM EGCG + ZX-1109 virus, 1 minute, third experiment, dilution factor 10^5, wells 1-10) was “+ and −”.
